Laboratory results from patent publication US8288375B2, “Fungicidal bicyclic pyrazoles” (E.I. du Pont de Nemours and Company, priority 2007, dated 2012).

How the values were obtained:
Pythium aphanidermatum = assay: Test L: bluegrass pythium blight, test suspension sprayed on bluegrass seedlings, disease rating; format: in vivo; settings: for pest or weed control at 200 ppm / Test L disease control rating: 200 ppm test suspension;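 for all read-outs here: 200 ppm unless marked * meaning 40 ppm or ** meaning 10 ppm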
[1] = tested on: Erysiphe graminis f. sp. tritici; assay: Test A: wheat powdery mildew, test suspension sprayed on wheat seedlings, disease rating; format: in vivo; settings: 200 ppm test suspension, 100 = 100% disease control, 0 = no control; for pest or weed control at 200 ppm: Blumeria graminis, 192 h
Septoria tritici = assay: Test E: wheat leaf blotch, test suspension sprayed on wheat seedlings, disease rating; format: in vivo; settings: for pest or weed control at 200 ppm / Test E disease control rating: 200 ppm test suspension;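 for all read-outs here: 200 ppm unless marked * meaning 40 ppm or ** meaning 10 ppm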
Septoria nodorum = assay: Test D: wheat glume blotch, test suspension sprayed on wheat seedlings, disease rating; format: in vivo; settings: 200 ppm test suspension; for pest or weed control at 200 ppm: Parastagonospora nodorum, 216 h
Phytophthora infestans = assay: whole plant or invertebrate; format: in vivo; settings: for Test J disease control rating: 200 ppm test suspension
Fusarium graminearum = assay: whole plant or invertebrate; format: in vivo; settings: for Test C disease control rating: 200 ppm test suspension
[2] = tested on: Puccinia recondite f sp. tritici; assay: Test B: wheat leaf rust, test suspension sprayed on wheat seedlings, disease rating; format: in vivo; settings: for pest or weed control at 200 ppm / Test B disease control rating: 200 ppm test suspension;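 for all read-outs here: 200 ppm unless marked * meaning 40 ppm or ** meaning 10 ppm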
Botrytis cinerea = assay: Test H: tomato Botrytis, test suspension sprayed on tomato seedlings, disease rating; format: in vivo; settings: 200 ppm test suspension; for pest or weed control at 200 ppm: Botrytis cinerea, 120 h
Alternaria solani = assay: Test G: tomato early blight, test suspension sprayed on seedlings, disease rating; format: in vivo; settings: Alternaria solani, 168 h;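 note: 200 ppm unless marked * meaning 40 ppm or ** meaning 10 ppm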
[3] = tested on: Colletotrichum orbiculare; assay: Test F: cucumber Colletotrichum anthracnose, test suspension sprayed on cucumber seedlings, disease rating; format: in vivo; settings: 200 ppm test suspension
Rhizoctonia oryzae = assay: Test I: turf brown patch, test suspension sprayed on creeping bent grass seedlings, disease rating; format: in vivo; settings: 200 ppm test suspension
Plasmopara viticola = assay: Test K: grape downy mildew, grape seedlings inoculated and then sprayed, disease rating; format: in vivo; settings: 200 ppm test suspension
[4] = Phytophthora infestans, in Solanum lycopersicum, 120 h, read-out: Test J disease control rating
[5] = Fusarium graminearum, in Triticum aestivum, 192 h, read-out: Test C disease control rating

SMILES | melting point | pest or weed control at 200 ppm (Pythium aphanidermatum; Pythium aphanidermatum, 120 h) | pest or weed control at 200 ppm [1] | pest or weed control at 200 ppm (Septoria tritici; Zymoseptoria tritici, 504 h) | pest or weed control at 200 ppm (Septoria nodorum) | pest or weed control at 200 ppm (Phytophthora infestans; [4]) | pest or weed control at 200 ppm (Fusarium graminearum; [5]) | pest or weed control at 200 ppm ([2]; Puccinia, 192 h) | Test L disease control rating (Pythium aphanidermatum) | Test H disease control rating (Botrytis cinerea) | Test C disease control rating (Fusarium graminearum) | Test A disease control rating [1] | Test K disease control rating (Plasmopara viticola) | Test E disease control rating (Septoria tritici) | Test D disease control rating (Septoria nodorum) | Test J disease control rating (Phytophthora infestans) | Test I disease control rating (Rhizoctonia oryzae) | Test B disease control rating [2] | Test F disease control rating [3] | other results
Fc1ccc(-c2nn3c(c2-c2ccnc(Cl)n2)CCCN3)cc1 | 206 to 207 °C |  |  |  |  |  |  |  |  |  |  |  |  |  |  |  |  |  |  | 
Fc1ccc(-c2nn3c(c2-c2ccnc(NCC4CC4)n2)CCCC3)cc1 [Compound 24, N-(cyclopropylmethyl)-4-[2-(4-fluorophenyl)-4,5,6,7-tetrahydropyrazolo[1,5-a]pyridin-3-yl]-2-pyrimidinamine] | 124 to 125 °C | 0% | 97% | 98% | 98% | 72% |  |  |  |  |  |  |  |  |  |  |  |  |  | 
Fc1ccc(-c2nn3c(c2-c2ccnc(NC4CCC4)n2)CCCC3)cc1 [Compound 51, N-cyclobutyl-4-[2-(4-fluorophenyl)-4,5,6,7-tetrahydropyrazolo[1,5-a]pyridin-3-yl]-2-pyrimidinamine] | 155 to 157 °C | 100% | 81% | 100% | 100% | 93% | 100% | 98% |  |  |  |  |  |  |  |  |  |  |  | 
CC(CO)Nc1nccc(-c2c(-c3ccc(F)cc3)nn3c2COCC3)n1 (stereo not drawn) [Compound 108, 2-[[4-[2-(4-fluorophenyl)-6,7-dihydro-4H-pyrazolo[5,1-c][1,4]oxazin-3-yl]-2-pyrimidinyl]amino]-1-propanol] | 124 to 126 °C | 100% | 43% | 99% | 87% | 77% | 98% | 99% |  |  |  |  |  |  |  |  |  |  |  | 
CC(C)Nc1nccc(-c2c(-c3ccc(F)cc3)nn3c2CCOC3)n1 [Compound 112, 4-[2-(4-fluorophenyl)-4,5-dihydro-7H-pyrazolo[1,5-c][1,3]oxazin-3-yl]-N-(1-methylethyl)-2-pyrimidinamine] | 167 to 169 °C | 99% | 0% | 99% | 93% | 99% | 100% | 95% |  |  |  |  |  |  |  |  |  |  |  | 
CC(C)Nc1nccc(-c2c(-c3ccccc3)nn3c2COCC3)n1 [Compound 116, 4-(6,7-dihydro-2-phenyl-4H-pyrazolo[5,1-c][1,4]oxazin-3-yl)-N-(1-methylethyl)-2-pyrimidinamine] | 185 to 187 °C | 100% | 90% | 91% | 92% | 95% | 100% | 93% |  |  |  |  |  |  |  |  |  |  |  | 
c1ccc(-c2nn3c(c2-c2ccnc(NC4CC4)n2)COCC3)cc1 [Compound 117, N-cyclopropyl-4-(6,7-dihydro-2-phenyl-4H-pyrazolo[5,1-c][1,4]oxazin-3-yl)-2-pyrimidinamine] | 186 to 189 °C | 100% | 86% | 98% | 98% | 95% | 99% | 97% |  |  |  |  |  |  |  |  |  |  |  | 
c1cc(-c2c(-c3ccsc3)nn3c2COCC3)nc(NC2CC2)n1 [Compound 121, N-cyclopropyl-4-[6,7-dihydro-2-(3-thienyl)-4H-pyrazolo[5,1-c][1,4]oxazin-3-yl]-2-pyrimidinamine] | 182 to 184 °C | 99% | 0% | 93% | 84% | 97% | 99% | 94% |  |  |  |  |  |  |  |  |  |  |  | pest or weed control at 200 ppm (Botrytis cinerea): 66%; pest or weed control at 200 ppm (Alternaria solani; 200 ppm test suspension): 89%; pest or weed control at 200 ppm ([3]; Colletotrichum orbiculare, 144 h): 15%
COC(=O)N1CCn2nc(-c3ccc(F)cc3)c(-c3ccnc(NC(C)C)n3)c2C1 [Compound 138, methyl 2-(4-fluorophenyl)-6,7-dihydro-3-[2-[(1-methylethyl)amino]-4-pyrimidinyl]pyrazolo[1,5-a]pyrazine-5(4H)-carboxylate] | 88 to 89 °C |  | 0% |  | 99% |  |  |  |  |  |  |  |  |  |  |  |  |  |  | pest or weed control at 40 ppm (Pythium aphanidermatum; Pythium aphanidermatum, 120 h, 40 ppm test suspension (*)): 99%; pest or weed control at 200 ppm (Botrytis cinerea): 68%; pest or weed control at 40 ppm (Fusarium graminearum; [5]): 86%; pest or weed control at 40 ppm (Septoria tritici; Zymoseptoria tritici, 504 h, 40 ppm test suspension (*)): 83%; pest or weed control at 40 ppm (Alternaria solani; 40 ppm test suspension (*)): 99%; pest or weed control at 40 ppm (Phytophthora infestans; [4]): 88%; pest or weed control at 200 ppm (Rhizoctonia oryzae; Waitea circinata, in Agrostis stolonifera, 120 h): 0%; pest or weed control at 40 ppm ([2]; Puccinia, 192 h, 40 ppm test suspension (*)): 98%
CC(C)(C)CNc1nccc(-c2c(-c3ccc(F)cc3)nn3c2CCCC3)n1 [compound 3] |  |  |  |  |  |  |  |  | 0% | 0% | 99% | 47% | 0% | 72% | 0% | 0% | 0% | 91% | 0% | 
CCCC(C)Nc1nccc(-c2c(-c3ccc(F)cc3)nn3c2CCCC3)n1 (stereo not drawn) [compound 4] |  |  |  |  |  |  |  |  | 0% | 55% | 100% | 0% | 21% | 90% | 60% | 0% | 0% | 92% | 8% | 
Fc1ccc(-c2nn3c(c2-c2ccnc(NC4CCCC4)n2)CCCC3)cc1 [compound 7] |  |  |  |  |  |  |  |  | 0% | 82% | 100% | 82% | 0% | 99% | 98% | 93% | 0% | 99% | 90% | 
CCC(C)c1ccc(Nc2nccc(-c3c(-c4ccc(F)cc4)nn4c3CCCC4)n2)cc1 (stereo not drawn) [compound 9] |  |  |  |  |  |  |  |  | 0% | 81% | 99% | 52% | 0% | 0% | 92% | 0% | 0% | 97% | 79% | 
CCCNc1nccc(-c2c(-c3ccc(F)cc3)nn3c2CCCC3)n1 [compound 11] |  |  |  |  |  |  |  |  | 100% | 97% | 100% | 93% | 0% | 98% | 99% | 100% | 44% | 99% | 83% | 
CN(C)c1nccc(-c2c(-c3ccc(F)cc3)nn3c2CCCC3)n1 [compound 14] |  |  |  |  |  |  |  |  | 0% | 0% | 100% | 95% | 0% | 99% | 73% | 60% | 0% | 91% | 0% | 
COc1ccc(-c2nn3c(c2-c2ccnc(NC4CC4)n2)CCC3)cc1 [compound 93] |  |  |  |  |  |  |  |  | 90% | 0% | 99% | 0% | 0% |  | 0% | 95% | 0% | 0% | 0% | 
Fc1ccc(-c2nn3c(c2-c2ccnc(NC4CC4)n2)CCC3)c(F)c1 [compound 94] |  |  |  |  |  |  |  |  | 99% | 96% | 100% | 82% | 0% |  | 98% | 99% | 16% | 97% | 24% | 
C=CCNc1nccc(-c2c(-c3ccc(F)cc3)nn3c2CCC3)n1 [compound 95] |  |  |  |  |  |  |  |  | 95% | 87% | 100% | 68% | 0% |  | 99% | 99% | 0% | 100% | 21% | 
